Data as given in ChEMBL document CHEMBL1201862, “PubChem BioAssay data set” (2004).
Calls of active or inactive are those of the source.

Key:
[1] = biological target: DNA (cytosine-5)-methyltransferase 1 (Homo sapiens, UniProt P26358); experiment: inhibition of DNA methylation by DNMT1 – biochemical, fluorescent molecular beacon, confirmation (AID 602386); assay type: functional
[2] = biological target: Caspase-6 (Homo sapiens, UniProt P55212); experiment: inhibition of CASP6 peptide cleavage – biochemical, VEID-R110 fluorescence, cherry-pick, dose response (AID 720632)
[3] = biological target: V-type proton ATPase subunit c' (Saccharomyces cerevisiae S288c, UniProt P32842); experiment: Dose Response of Small Molecules that Regulate V-ATPase Proton Transport in Yeast using pHLuorin, Cherry Pick 2.; assay type: functional; conditions: read-out: EC50_MICROM
[4] = biological target: Mitochondrial peptide methionine sulfoxide reductase (Bos taurus, UniProt P54149); assay type: functional;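 also: absorbance read-out, biochemical high-throughput dose-response screen for MsrA inhibitors, confirmatory; recombinant bovine MsrA coupled to E. coli TrxB with NADPH and selenocystamine; potency is for inhibitors of MsrA activity on DMSO substrate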
[5] = biological target: Aryl hydrocarbon receptor (Homo sapiens, UniProt P35869); conditions: Potency;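 also: confirmatory quantitative high-throughput screen measuring activation of the AhR signaling pathway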
Sequence of Aryl hydrocarbon receptor (P35869 whole entry): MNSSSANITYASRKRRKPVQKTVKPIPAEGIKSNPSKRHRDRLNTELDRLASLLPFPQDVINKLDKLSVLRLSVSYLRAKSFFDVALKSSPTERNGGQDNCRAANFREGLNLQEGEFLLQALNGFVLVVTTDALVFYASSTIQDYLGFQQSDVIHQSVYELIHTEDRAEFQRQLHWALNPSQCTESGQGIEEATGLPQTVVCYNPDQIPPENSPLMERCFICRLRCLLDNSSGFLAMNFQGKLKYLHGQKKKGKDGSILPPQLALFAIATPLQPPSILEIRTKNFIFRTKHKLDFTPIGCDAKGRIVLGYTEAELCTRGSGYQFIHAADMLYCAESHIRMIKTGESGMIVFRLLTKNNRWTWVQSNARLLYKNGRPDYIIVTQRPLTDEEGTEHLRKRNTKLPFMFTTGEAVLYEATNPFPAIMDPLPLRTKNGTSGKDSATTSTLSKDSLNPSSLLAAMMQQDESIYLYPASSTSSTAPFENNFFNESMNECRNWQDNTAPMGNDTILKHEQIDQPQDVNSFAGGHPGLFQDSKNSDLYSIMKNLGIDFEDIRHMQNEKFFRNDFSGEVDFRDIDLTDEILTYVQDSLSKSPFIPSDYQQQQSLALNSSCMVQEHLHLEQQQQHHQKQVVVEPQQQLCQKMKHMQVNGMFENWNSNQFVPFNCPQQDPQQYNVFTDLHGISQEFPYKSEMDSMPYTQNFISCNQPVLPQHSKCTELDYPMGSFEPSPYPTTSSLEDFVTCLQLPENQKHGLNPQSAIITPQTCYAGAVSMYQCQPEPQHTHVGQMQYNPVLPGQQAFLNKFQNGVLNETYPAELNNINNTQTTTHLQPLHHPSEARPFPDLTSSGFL

Sequence of Caspase-6 (P55212 24-179 limits assumed): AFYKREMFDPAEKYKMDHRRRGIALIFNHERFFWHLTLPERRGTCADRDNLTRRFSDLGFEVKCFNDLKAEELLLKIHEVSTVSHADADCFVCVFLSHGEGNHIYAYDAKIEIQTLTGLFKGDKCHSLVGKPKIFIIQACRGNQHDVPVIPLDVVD
Sequence of Caspase-6 (P55212 194-293 limits assumed): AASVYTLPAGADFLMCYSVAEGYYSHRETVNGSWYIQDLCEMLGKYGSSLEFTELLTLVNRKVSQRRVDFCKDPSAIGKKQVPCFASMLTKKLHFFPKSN
Sequence of DNA (cytosine-5)-methyltransferase 1 (P26358 whole entry): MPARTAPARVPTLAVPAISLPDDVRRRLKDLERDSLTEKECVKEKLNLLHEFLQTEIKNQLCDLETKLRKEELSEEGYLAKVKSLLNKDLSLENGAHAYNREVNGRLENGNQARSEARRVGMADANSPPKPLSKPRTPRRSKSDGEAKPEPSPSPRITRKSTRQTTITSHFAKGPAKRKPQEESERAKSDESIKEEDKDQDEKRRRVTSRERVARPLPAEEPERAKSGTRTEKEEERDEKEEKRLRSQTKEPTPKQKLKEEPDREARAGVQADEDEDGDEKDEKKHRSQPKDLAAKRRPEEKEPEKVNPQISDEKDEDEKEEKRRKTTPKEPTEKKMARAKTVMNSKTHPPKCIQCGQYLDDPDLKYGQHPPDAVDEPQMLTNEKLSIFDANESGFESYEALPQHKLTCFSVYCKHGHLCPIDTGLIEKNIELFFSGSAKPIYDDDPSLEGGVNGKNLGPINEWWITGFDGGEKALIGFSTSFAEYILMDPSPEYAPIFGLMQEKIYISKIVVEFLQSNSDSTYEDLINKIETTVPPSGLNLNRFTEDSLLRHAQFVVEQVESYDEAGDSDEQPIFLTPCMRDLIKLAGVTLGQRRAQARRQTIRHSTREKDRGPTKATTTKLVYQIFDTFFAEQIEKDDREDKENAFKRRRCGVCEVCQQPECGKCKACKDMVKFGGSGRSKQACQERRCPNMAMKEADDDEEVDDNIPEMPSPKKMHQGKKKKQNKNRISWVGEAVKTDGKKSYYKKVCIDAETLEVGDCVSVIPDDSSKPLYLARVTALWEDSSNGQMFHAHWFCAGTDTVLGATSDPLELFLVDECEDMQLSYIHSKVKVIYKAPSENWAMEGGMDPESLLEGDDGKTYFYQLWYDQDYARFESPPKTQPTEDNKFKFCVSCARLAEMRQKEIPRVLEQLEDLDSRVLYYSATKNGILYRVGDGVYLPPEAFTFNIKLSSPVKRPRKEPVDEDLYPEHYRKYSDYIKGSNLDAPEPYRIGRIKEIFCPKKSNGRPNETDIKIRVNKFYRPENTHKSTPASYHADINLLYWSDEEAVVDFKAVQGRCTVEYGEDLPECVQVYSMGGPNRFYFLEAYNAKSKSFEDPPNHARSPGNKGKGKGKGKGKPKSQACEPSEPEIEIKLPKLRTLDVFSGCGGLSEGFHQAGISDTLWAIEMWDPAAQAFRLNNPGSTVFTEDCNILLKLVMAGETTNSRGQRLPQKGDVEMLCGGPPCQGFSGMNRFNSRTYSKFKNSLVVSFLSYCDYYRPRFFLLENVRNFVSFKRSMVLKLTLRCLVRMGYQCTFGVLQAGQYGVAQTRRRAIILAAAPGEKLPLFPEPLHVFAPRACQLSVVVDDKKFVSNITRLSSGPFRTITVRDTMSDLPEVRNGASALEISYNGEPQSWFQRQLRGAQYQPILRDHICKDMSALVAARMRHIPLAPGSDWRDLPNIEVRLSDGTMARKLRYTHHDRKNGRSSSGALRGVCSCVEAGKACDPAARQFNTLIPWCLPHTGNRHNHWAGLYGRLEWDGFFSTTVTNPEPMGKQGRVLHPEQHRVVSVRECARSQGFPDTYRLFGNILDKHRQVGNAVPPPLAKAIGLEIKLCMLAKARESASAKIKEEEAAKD
Sequence of Mitochondrial peptide methionine sulfoxide reductase (P54149 whole entry): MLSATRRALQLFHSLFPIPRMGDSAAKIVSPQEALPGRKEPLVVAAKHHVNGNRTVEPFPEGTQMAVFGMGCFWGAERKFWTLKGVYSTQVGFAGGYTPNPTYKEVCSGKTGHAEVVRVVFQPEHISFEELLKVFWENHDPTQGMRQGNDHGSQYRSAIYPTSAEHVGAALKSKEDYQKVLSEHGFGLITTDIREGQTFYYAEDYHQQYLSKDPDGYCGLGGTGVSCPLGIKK
Sequence of V-type proton ATPase subunit c' (P32842 whole entry): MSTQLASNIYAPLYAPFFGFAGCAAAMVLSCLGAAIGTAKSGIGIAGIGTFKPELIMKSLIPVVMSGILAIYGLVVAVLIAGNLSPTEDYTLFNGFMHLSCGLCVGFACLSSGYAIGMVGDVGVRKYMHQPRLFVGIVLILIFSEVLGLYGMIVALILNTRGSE

## O=C(O)CCc1ccc(S(=O)(=O)Nc2cc(C(F)(F)F)ccc2N2CCCC2)cc1
[1]
  IC50: 11.7 µM (active)
[2]
  AC50: 38.4 µM (active)

## O=C1C=CC(=Nc2ccc3c(c2)Cc2cc(F)ccc2-3)O1
[3]
  EC50: 7.26 µM (active)

## N#Cc1c(-n2cccc2/C=N/O)sc2c1CCCC2
[4]
  IC50: 155 µM (inactive)

## CC(C)N1C(=O)c2ccccc2NS1(=O)=O [BENTAZON]
[5]
  AC50: 79.4 µM (inconclusive)
